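The compound was tested at five concentrations on cells cultured in 96-well plates, with a 48-hour exposure period. GI50 marks 50% less growth.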 The source made the active and inactive calls. Cut-off read from the data, not from the text of the source: active = GI50 up to about 1.1 µM and inactive = higher.

Data on five molecules can be found in ChEMBL document CHEMBL1201862, “PubChem BioAssay data set” (2004).

Among the test systems are SK-MEL-2; OVCAR-3; RPMI-8226; SN12C; U-251; NCI-H522; SF-295; SF-539; EKVX; MCF7; Malme-3M; NCI-H460; HCT-15; HCT-116; UACC-62; NCI-H23; OVCAR-5; ACHN; A498; CAKI-1.
What all share (test): NCI-60 cell line screen, 48 h

For the molecule `COc1cc[n+](C)cc1`, the GI50 in the assay on SK-MEL-2, with OVCAR-3, in the assay on RPMI-8226, in the assay with SN12C, with U-251 and in the assay on NCI-H522 was > 100 µM (inactive) in each case. Also, the GI50 with SF-295, with SF-539, in the assay with EKVX, in the assay on MCF7, with Malme-3M and in the assay on NCI-H460 was > 100 µM (inactive) each time. Besides, the GI50 is > 100 µM in the assay with HCT-15; > 100 µM (inactive) in the assay on HCT-116; > 100 µM (inactive) with UACC-62; > 100 µM (inactive) in the assay with NCI-H23; > 100 µM (inactive) in the assay on OVCAR-5.
Turning to `COc1ccc(C(CC(=O)c2cccs2)C(=O)c2ccc3c(c2)OCO3)cc1` (stereo not drawn), the GI50 in the assay on ACHN is > 100 µM (inactive); with RPMI-8226 it was 59.8 µM (inactive); in the assay on SN12C, > 100 µM (inactive); in the assay with U-251, > 100 µM (inactive); in the assay on SF-539, > 100 µM (inactive); in the assay with EKVX, > 100 µM (inactive). In addition, the GI50 with MCF7 is > 100 µM (inactive); in the assay on Malme-3M, 97.7 µM (inactive); in the assay with A498 it was 72.1 µM (inactive); with NCI-H460, > 100 µM (inactive); in the assay on HCT-15, > 100 µM; in the assay on HCT-116 it was > 100 µM (inactive). The GI50 in the assay with UACC-62, in the assay on CAKI-1 and in the assay with NCI-H23 was > 100 µM (inactive) throughout.
Take `O=C1Nc2ccccc2/C1=N/NC(=S)Nc1ccccc1Cl`: the GI50 was 13.8 µM (inactive) in the assay with SK-MEL-2; 2.19 µM (inactive) with ACHN; 2.16 µM (inactive) in the assay on OVCAR-3; 10.4 µM (inactive) in the assay on SN12C; 3.56 µM (inactive) in the assay on U-251; 11.9 µM (inactive) in the assay on NCI-H522. The GI50 in the assay with SF-295 was 1.29 µM (inactive); with SF-539, 2.4 µM (inactive); in the assay on EKVX, 4.34 µM (inactive); in the assay on MCF7, 3.4 µM (inactive); in the assay with Malme-3M, 3.44 µM (inactive); in the assay with A498, 7.96 µM (inactive). Moreover, the GI50 is 0.735 µM (active) in the assay on NCI-H460; 2.31 µM in the assay on HCT-15; 0.729 µM (active) in the assay on HCT-116; 3.94 µM (inactive) in the assay on UACC-62; 3.8 µM (inactive) in the assay on CAKI-1; 8.71 µM (inactive) in the assay on NCI-H23. Further, the GI50 with OVCAR-5 is 26.5 µM (inactive).
`Nc1nccc2c1ncn2[C@H]1C[C@H](O)[C@@H](CO)O1`: the GI50 in the assay on SK-MEL-2, in the assay on OVCAR-3, in the assay on RPMI-8226, in the assay with SN12C, in the assay on U-251 and in the assay on SF-295 was > 100 µM (inactive) in each case. For the same molecule, the GI50 in the assay on MCF7 was > 100 µM (inactive); in the assay on Malme-3M, > 100 µM (inactive); in the assay with A498 it was > 100 µM (inactive); with NCI-H460 it was > 100 µM (inactive); in the assay with HCT-15, > 100 µM; with HCT-116 it was > 100 µM (inactive). Further, the GI50 in the assay with UACC-62, in the assay with CAKI-1, in the assay on NCI-H23 and in the assay with OVCAR-5 was > 100 µM (inactive) throughout.
As to `CN1CC(c2ccccc2)N(CCCCN2CC(c3ccccc3)N(C)CC2c2ccccc2)CC1c1ccccc1` (stereo not drawn), the GI50 in the assay with SK-MEL-2 was 30.9 µM (inactive); in the assay on ACHN it was > 100 µM (inactive); with OVCAR-3 it was 53.3 µM (inactive); in the assay with SN12C it was 46.5 µM (inactive); in the assay with SF-295 it was 34.8 µM (inactive); in the assay on SF-539, 52.7 µM (inactive). The GI50 in the assay with EKVX was 59 µM (inactive); in the assay with MCF7, 68.7 µM (inactive); in the assay on Malme-3M it was 31.7 µM (inactive); in the assay on A498 it was 36 µM (inactive); in the assay with NCI-H460 it was 18.1 µM (inactive); in the assay on HCT-15, 29.2 µM. Also, the GI50 was 11.9 µM (inactive) in the assay on HCT-116, 30.7 µM (inactive) with UACC-62, > 100 µM (inactive) in the assay on CAKI-1 and > 100 µM (inactive) in the assay with OVCAR-5.
